Assays:
Delta opioid receptor = Delta opioid receptor (Homo sapiens, UniProt P41143); assay: Delta opioid receptor displacement; type: binding
CB2 receptor = CB2 receptor (Homo sapiens, UniProt P34972); assay: CB2 receptor displacement; type: binding
Trypanosoma brucei = assay: Inhibition of Trypanosoma brucei; type: cell-based
Mu opioid receptor = Mu opioid receptor (Homo sapiens, UniProt P35372); assay: Mu opioid receptor displacement; type: binding
Leishmania donovani = assay: Activity towards Leishmania donovani; type: cell-based
Escherichia coli = assay: Inhibition of Escherichia coli; type: cell-based

Chain of CB2 receptor (P34972 whole entry): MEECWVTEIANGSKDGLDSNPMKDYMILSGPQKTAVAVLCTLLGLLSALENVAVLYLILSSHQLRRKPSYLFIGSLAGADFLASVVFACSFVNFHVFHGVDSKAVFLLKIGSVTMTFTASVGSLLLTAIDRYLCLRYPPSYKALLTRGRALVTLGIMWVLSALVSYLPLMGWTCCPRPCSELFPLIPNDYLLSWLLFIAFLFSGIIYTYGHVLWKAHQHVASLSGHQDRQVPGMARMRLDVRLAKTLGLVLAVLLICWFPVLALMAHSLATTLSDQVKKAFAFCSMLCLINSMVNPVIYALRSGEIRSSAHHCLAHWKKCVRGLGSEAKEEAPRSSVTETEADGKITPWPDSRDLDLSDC
Chain of Mu opioid receptor (P35372 whole entry): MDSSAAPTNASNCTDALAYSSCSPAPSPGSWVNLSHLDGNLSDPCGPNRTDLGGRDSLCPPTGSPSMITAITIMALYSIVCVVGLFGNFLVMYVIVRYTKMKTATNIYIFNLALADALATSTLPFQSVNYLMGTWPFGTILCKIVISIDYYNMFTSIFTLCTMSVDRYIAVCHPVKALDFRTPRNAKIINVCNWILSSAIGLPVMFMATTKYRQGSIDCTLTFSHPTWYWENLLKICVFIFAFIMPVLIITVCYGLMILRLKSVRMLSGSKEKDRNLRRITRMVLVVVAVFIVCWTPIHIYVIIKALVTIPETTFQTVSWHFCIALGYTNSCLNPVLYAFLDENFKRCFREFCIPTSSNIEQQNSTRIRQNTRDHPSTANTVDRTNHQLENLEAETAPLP
Chain of Delta opioid receptor (P41143 whole entry): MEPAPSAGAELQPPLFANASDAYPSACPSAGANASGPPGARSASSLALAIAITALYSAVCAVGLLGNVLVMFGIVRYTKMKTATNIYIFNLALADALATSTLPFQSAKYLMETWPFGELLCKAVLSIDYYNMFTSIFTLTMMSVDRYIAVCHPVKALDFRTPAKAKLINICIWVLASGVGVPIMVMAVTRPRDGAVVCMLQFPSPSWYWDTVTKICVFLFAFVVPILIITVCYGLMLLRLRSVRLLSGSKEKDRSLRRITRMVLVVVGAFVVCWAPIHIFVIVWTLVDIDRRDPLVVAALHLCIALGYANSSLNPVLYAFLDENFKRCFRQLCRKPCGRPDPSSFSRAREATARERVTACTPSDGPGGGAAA

displacement in Delta opioid receptor (Delta opioid receptor) [%] | IC50 (CB2 receptor) [µM] | displacement in CB2 receptor (CB2 receptor) [%] | IC50 (Trypanosoma brucei; Trypanosoma brucei, read-out: IC50 T. brucei) [µM] | displacement in Mu opioid receptor (Mu opioid receptor) [%] | IC50 (Leishmania donovani; Leishmania donovani, read-out: IC50 Leishmania donovani) [µM] | Compound | inhibition towards Trypanosoma brucei (Trypanosoma brucei) [%] | activity towards Leishmania donovani (Leishmania donovani) [%] | inhibition towards Escherichia coli Pinh (Escherichia coli) [%] | IC50 (Escherichia coli; read-out: IC50 Escherichia coli) [µM]
65 | 56.5 | 73 | 4.16 | 49 | 9.3 | CC1=C[C@H](O)CC(C)(C)[C@H]1/C=C/C(C)=C/C=C/C(C)=C/C=C/C=C(C)/C=C/C=C(C)/C=C/C1=C(C)C[C@@H](O)CC1(C)C [Compound 4, lutein] | 93 | 48 |  | 
 |  |  |  |  |  | myricitrin [Compound 11] |  |  | 99 | 1.12

From publication PMC6098982 (Natural product research, 2018)
